# Entries after “also recorded” stand apart in the source; their conditions may differ.
# What was measured:
# [1] = Toxicity (body weight, deaths, clinical signs) in the HCT116 xenograft study; type: in vivo, mice; settings: for Deaths NTR / Deaths TR: po, 45 days
# Protocol: Animals were weighed daily on Days 1-5, then twice per week until completion of the study. The mice were observed frequently for overt signs of any adverse, TR side effects, and clinical signs were recorded when observed. Individual BW loss was monitored as per protocol, and any animal whose weight exceeded the limits for acceptable BW loss was euthanized. Group mean BW loss also was monitored as per protocol. Dosing was to be suspended in any group that exceeded the limits for acceptable mean BW loss. If mean BW recovered, then dosing was to be resumed in that group, but at a lower dosage or less frequent dosing schedule. Acceptable toxicity for the maximum tolerated dose (MTD) was defined as a group mean BW loss of less than 20% during the study and not more than 10% TR deaths. A death was classified as TR if attributable to treatment side effects as evidenced by clinical signs and/or necropsy, or may also be classified as TR if due to unknown causes during the dosing period or within 14 days of the last dose. A death was classified as NTR if there was no evidence that death was related to treatment side effects. NTR deaths may be further characterized based on cause of death. A death was classified as NTRa if it resulted from an accident or human error. […] A death was classified as NTRu if the cause of death was unknown and there was no available evidence of death related to treatment side effects, metastasis, accident or human error, although death due to treatment side effects cannot be excluded.
# [2] = tested on: HCT116 human colorectal carcinoma xenograft; assay: HCT116 xenograft tumor growth delay (TGD) study; type: in vivo, mice
# Protocol: Female athymic nude mice (Crl:NU(Ncr)-Foxn1^nu, Charles River) were eight weeks old with a body weight (BW) range of 14.6 to 25.7 grams on Day 1 of the study. The animals were fed ad libitum water (reverse osmosis, 1 ppm Cl), and NIH 31 Modified and Irradiated Lab Diet® consisting of 18.0% crude protein, 5.0% crude fat, and 5.0% crude fiber. The mice were housed on irradiated Enrich-O'Cobs™ Laboratory Animal Bedding in static microisolators on a 12-hour light cycle at 20-22° C. (68-72° F.) and 40-60% humidity.
# HCT116 human colon carcinoma cells were cultured in RPMI-1640 medium supplemented with 10% fetal bovine serum, 2 mM glutamine, 100 units/mL penicillin G sodium, 100 μg/mL streptomycin sulfate, and 25 μg/mL gentamicin. The tumor cells were grown in tissue culture flasks in a humidified incubator at 37° C., in an atmosphere of 5% CO2 and 95% air.
# The HCT116 cells used for implantation were harvested during exponential growth and resuspended in 50% Matrigel (BD Biosciences): 50% phosphate buffered saline at a concentration of 2.5×10^7 cells/mL. On the day of tumor implant, each test mouse was injected subcutaneously in the right flank with 5×10^6 cells (0.2 mL cell suspension), and tumor growth was monitored as the average size approached the target range of 100 to 150 mm^3. Tumors were measured in two dimensions using calipers, and volume was calculated using the formula: Tumor Volume (mm^3)=(w^2×l)/2 where w=width and l=length, in mm, of the tumor. Tumor weight may be estimated with the assumption that 1 mg is equivalent to 1 mm^3 of tumor volume.
# Ten days after tumor implantation, designated as Day 1 of the study, the animals were sorted into nine groups (Groups 1-9) each consisting of fifteen mice and one group (Group 10) consisting of ten mice.
# BVD-523 doses were prepared by suspending the required amount of BVD-523 powder in 1% carboxymethyl cellulose (CMC) in deionized water (“Vehicle”). A 10 mg/mL BVD-523 stock was prepared, and was used to dose the 100 mg/kg BVD-523 group. Aliquots of the stock were diluted with the vehicle to a concentration of 5.0 mg/mL, which provided a 50 mg/kg BVD-523 dosage in a dosing volume of 10 mL/kg. The BVD-523 doses were stored at 4° C. for up to one week. The 1% CMC vehicle was used to dose the control group.
# Paclitaxel (Lot CP2N10007) was purchased as a dry powder from Phyton Biotech, LLC (Fort Worth, Tex.). A paclitaxel stock solution (30 mg/mL) in 50% ethanol: 50% Cremophor EL was prepared and stored at room temperature protected from light during the dosing period. On each day of dosing, an aliquot of the paclitaxel stock was diluted with 5% dextrose in water (D5W) to yield a 3.0 mg/mL paclitaxel dosing solution in a vehicle consisting of 5% ethanol: 5% Cremophor EL: 90% D5W.
# On Day 1 of the study, mice were sorted into nine groups (Group 1-9) each consisting of fifteen mice and one group (Group 10) consisting of ten mice, and dosing was initiated according to the treatment plan summarized in Table 4 below. All doses were given by oral gavage (p.o.) except paclitaxel, which was given i.v. For each agent, the dosing volume of 10 mL/kg (0.2 mL per 20 grams of BW) was scaled to the BW of the individual animal. […] For bid dosing, dosing was initiated in the afternoon of Day 1, so that one dose was given on the first day (“first day 1 dose”).
# Group 1 received 1% CMC vehicle p.o. bid to end, and served as the control group for calculation of % TGD. Group 10 received paclitaxel i.v. at 30 mg/kg once every other day (qod) for five doses (qod×5), and served as the positive control for the model.
# Groups 4 and 5 received 50 and 100 mg/kg BVD-523, respectively, p.o. bid to end.
# [3] = Group 1 (vehicle) vs Group 4 (BVD-523 50 mg/kg po bid to end)
# [4] = Group 4: BVD-523 50 mg/kg po bid to end
# [5] = Group 5: BVD-523 100 mg/kg po bid to end
smiles,measurement,setting,value
CC(C)Nc1cc(-c2c[nH]c(C(=O)N[C@H](CO)c3cccc(Cl)c3)c2)c(Cl)cn1 [BVD-523],Tolerability relative to the MTD,"[1]; Group 5: BVD-523 100 mg/kg p.o. bid to end, 100 mg/kg",above the MTD; also recorded: above the maximum tolerated dose
same,Adverse clinical signs,"[1]; mouse, in vivo, 50 mg/kg",no noteworthy adverse clinical signs
same,Deaths NTR,"[1]; mouse, in vivo, 50 mg/kg",0
same,Deaths TR,"[1]; mouse, in vivo, 50 mg/kg",0
same,Deaths NTR,"[1]; mouse, in vivo, 100 mg/kg",0
same,Deaths TR,"[1]; mouse, in vivo, 100 mg/kg",4
same,Overall activity in the HCT116 xenograft model,[2]; BVD-523 50 mg/kg p.o. bid to end,active
same,Are survival curves diff.?,[2]; [3],Yes
same,Hazard Ratio,[2]; [3],4.813
same,Logrank test Chi square,[2]; [3],21.86
same,Median survival Ratio (Column A/Column B),[2]; [3],0.7517
same,% TGD,[2]; [4],33%
same,MTV (n): number of animals on D 45 (45-day survivors),[2]; [4],(5)
same,MTV D 45 (median tumor volume),[2]; [4],1666 mm^3
same,Median TTE,[2]; [4],43.5 days
same,Regressions CR,[2]; [4],0
same,Regressions PR,[2]; [4],0
same,Regressions TFS,[2]; [4],0
same,T − C,[2]; [4],10.8 days
same,% TGD,[2]; [5],38%
same,MTV (n): number of animals on D 45 (45-day survivors),[2]; [5],(11)
same,MTV D 45 (median tumor volume),[2]; [5],405 mm^3
same,Median TTE,[2]; [5],45.0 days
same,Regressions CR,[2]; [5],0
same,Regressions PR,[2]; [5],0
same,Regressions TFS,[2]; [5],0
same,T − C,[2]; [5],12.3 days

# Reference: patent publication US11007183B2, “Cancer treatments using combinations of PI3K/Akt pathway and ERK inhibitors” (BIOMED VALLEY DISCOVERIES, INC., priority 2013, dated 2021)
